In paper PMC6332076, “Plasma Pharmacokinetics of Polyphenols in a Traditional Japanese Medicine, Jumihaidokuto, Which Suppresses Propionibacterium acnes-Induced Dermatitis in Rats” (Molecules, 2015):
Read-outs that look alike come from different tables or passages of the source.

How the values were obtained:
in vivo = assay: in vivo; parameters: species or system rat; conditions: for AUC(0-t) / Cmax / half-life / tmax: oral JHT 2 g/kg, non-compartmental; for concentration at 24 h / concentration at 1 h: rat, po, 2 g/kg; for concentration at 24 h: in vivo, 24 h after oral JHT 2 g/kg; for concentration at 1 h: plasma
Method: The higher dose than that in the pharmacological test was used to detect more constituents. […] In some experiments to deconjugate glucuronidated polyphenols, the samples were incubated with 75 mmol/L phosphate buffer containing 200 units/mL β-glucuronidase from Escherichia coli (Sigma-Aldrich) for 2 h at 37 °C.
For quantification of liquiritin, liquiritigenin, isoliquiritin, isoliquiritigeniin, hesperidin, hesperetin, castalagin, and all flavonoid glucuronides, 25–60 µL of standard solution and 25 µL of internal standard solution were added to 200–300 µL of plasma samples, followed by mixing well. Methanol (750–800 µL) was added to the solutions, followed by mixing and centrifugation (7000 g, 5 min). The supernatants were collected and dried at 40 °C under a stream of nitrogen gas. Then, the dried residue was dissolved in 50–100 μL of the HPLC mobile phase of each analytical method, and a 1–20 μL portion was injected into the LC-MS/MS systems. For quantification of genistein, luteolin, quercetin, (+)-catechin, (−)-epicatechin gallate, (±)-gallocatechin, Gallic acid, 4-O-methylgallic acid, hamamelitannin, 1,2,3,6-tetra-O-galloyl glucose, 1,2,3,4,6-penta-O-galloyl glucose, eugeniin, and 1-desgalloyl eugeniin, 200 μL of plasma samples were used. The amounts were measured using the same procedure, as described previously, except ethyl acetate (500 μL) and 2% acetic acid (100 μL), instead of methanol, were used concurrently as an extraction solution.
Plasma pharmacokinetic data were analyzed by non-compartmental modeling using Phoenix WinNonlin (version 6.3, Certara L.P., St. Louis, MO, USA) to determine various pharmacokinetic constants including the maximum concentration (Cmax), time to maximum concentration (tmax), apparent elimination half-life (t1/2), and area under the plasma concentration-time curve from time zero to the last observation (AUC0–last). The t1/2 was […] loge2/ke, where ke is the terminal elimination (at least three data points on the descending linear limb) rate constant.

[1] = Antioxidant assay, hydrogen peroxide-dependent oxidation (OxiSelect In vitro ROS/RNS Assay, DCFH-DiOxyQ); format: biochemical; conditions: for anti-ROS activity of glucuronide compared with its aglycone: serially-diluted concentrations; for Antioxidant activity, IC50, Hydrogen Peroxide: tested at 0.1-30 μmol/L, N = 3, n.d. = not detectable at the maximal concentration (30 μmol/L); for activity against ROS (in words): hydrogen peroxide-dependent oxidation
Method: Figure 4 Concentration dependency of flavonoid glucuronides and comparison with aglycones. Glucuronides and aglycones of flavonoid were assayed at serially-diluted concentrations to assess on hydrogen peroxide-dependent oxidation. Test samples were incubated with hydrogen peroxide for 5 min, followed by mixing with a probe of oxidant activity. After 15 min incubation, the hydrogen peroxide-dependent fluorescent intensity was measured. Data are shown as mean ± S.E. of triplicates. To assess ROS, OxiSelect In vitro ROS/RNS Assay kits ([…], Minneapolis, MN, USA) were used according to manufacturer’s instructions. Briefly, a test sample was incubated with 2.5 μmol/L of hydrogen peroxide for 5 min, and dichlorodihydrofluorescin DiOxyQ (DCFH-DiOxyQ) was added as a probe of oxidant activity. After 15 min incubation, the hydrogen peroxide-dependent fluorescent intensity was measured using a fluorescent plate reader (Infinite M200; Tecan, Wako Pure Chemical Industries). Percentage of inhibition of ROS was calculated using the following equation: [1 − (sample RFU^a − base RFU^b)/(control RFU^c − base RFU^b)] × 100 (1) where RFU is a relative fluorescent unit of reaction solution, a is RFU of DCFH-DiOxyQ with hydrogen peroxide and sample, b is RFU of DCFH-DiOxyQ alone, and c is RFU of DCFH-DiOxyQ with hydrogen peroxide.

[2] = Antioxidant assay, nitric oxide generated from NOR3 (Griess reagent); format: biochemical; conditions: for activity against nitric oxide (in words): nitric oxide reaction
Method: To quantify nitric oxide, a test sample was incubated at 37 °C for 150 min in PBS supplemented with 30 μmol/L of (±)-(E)-4-ethyl-2-[(E)-hydroxyimino]-5-nitro-3-hexenamide (NOR3). Nitric oxide generated naturally from NOR3, was measured using the Griess reagent (1% sulfanilamide, 0.1% N-(1-naphthyl) ethylenediamine dihydrochlride in 5% H3PO4). Briefly, 100 μL of the reacted solution was incubated for 5 min with 100 μL Griess reagent. Optical densities at 540 nm were then measured.

[3] = rat plasma after oral JHT 2 g/kg
[4] = rat plasma, 6 h after oral JHT 2 g/kg
[5] = rat plasma, 1 h after oral JHT 2 g/kg, read-out: plasma concentration before β-glucuronidase treatment

| Compound | AUC(0-t) (in vivo; rat plasma) [µg·h/mL] | Cmax (in vivo; rat plasma) [µg/mL] | half-life (in vivo; rat plasma) [h] | tmax (in vivo; rat plasma) [H] | Antioxidant activity, IC50, Hydrogen Peroxide [1] | other results |
| --- | --- | --- | --- | --- | --- | --- |
| O=C(C=Cc1ccc(OC2OC(C(=O)O)C(O)C(O)C2O)cc1)c1ccc(O)cc1O (stereo not shown) [Isoliquiritigenin 4-O-glucuronide, isoliquiritigenin 4-O-glucuronide] | 0.00184 | 0.000388 | 5.68 | 0.250 | – | – |
| O=C(C=Cc1ccc(O)cc1)c1ccc(OC2OC(C(=O)O)C(O)C(O)C2O)cc1O (stereo not shown) [Isoliquiritigenin 4′-O-glucuronide, isoliquiritigenin 4′-O-glucuronide] | 0.0808 | 0.0158 | 2.25 | 0.250 | 0.691 mg/L | anti-ROS activity of glucuronide compared with its aglycone ([1]; Figure 4): completely identical to that of their aglycones |
| O=C(O)C1OC(Oc2cc(O)c3c(=O)c(-c4ccc(O)cc4)coc3c2)C(O)C(O)C1O (stereo not shown) [Genistein 7-O-glucuronide, genistein 7-O-glucuronide] | 0.812 | 0.0534 | – | 24.0 | 0.638 mg/L | plasma concentration (in vivo; rat plasma at 10 and 24 h after oral JHT): approximately 50 ng/mL; tmax (in vivo; rat plasma, listed as GEN-7G): 24 H; inhibition (anti-ROS activity) ([1]; at 134 ng/mL, statistically significant, Figure 4): 25%; anti-ROS activity of glucuronide compared with its aglycone ([1]; Figure 4): completely identical to that of their aglycones |
| CC1(C)[C@@H](O)CC[C@]2(C)[C@H]3C(=O)C=C4[C@@H]5C[C@@](C)(C(=O)O)CC[C@]5(C)CC[C@@]4(C)[C@]3(C)CC[C@@H]12 [Glycyrrhetic acid, glycyrrhetic acid, reference compound] | – | – | – | – | – | appearance / detection in plasma (in vivo; [3]): identified by major peaks; activity against ROS (in words) [1]: no activity; activity against nitric oxide (in words) [2]: no activity |
| O=C1C[C@@H](c2ccc(O)cc2)Oc2cc(O)ccc21 [liquiritigenin] | – | – | – | – | – | plasma concentration after β-glucuronidase treatment (in vivo; [4]): 0.2 µg/mL; plasma concentration before β-glucuronidase treatment (in vivo; [4]): 0.000873 µg/mL; activity against ROS (in words) [1]: strong activity |
| O=c1c(-c2ccc(O)cc2)coc2cc(O)cc(O)c12 [genistein] | – | – | – | – | – | concentration at 24 h (in vivo; rat plasma, read-out: plasma concentration after β-glucuronidase treatment): 0.0783 µg/mL; concentration at 24 h (in vivo; rat plasma, read-out: plasma concentration before β-glucuronidase treatment): 0.000975 µg/mL |
| O=C1CC(c2ccc(OC3OC(C(=O)O)C(O)C(O)C3O)cc2)Oc2cc(O)ccc21 (stereo not shown) [Liquiritigenin 4′-O-glucuronide, liquiritigenin 4′-O-glucuronide] | 0.522 | 0.0841 | 2.27 | 2.00 | not detectable even at the highest concentration | activity against ROS (in words) [1]: no activity; anti-ROS activity of glucuronide compared with its aglycone ([1]; Figure 4): no activity |
| COc1c2c(cc3oc(CO)cc(=O)c13)O[C@H](C(C)(C)O)C2 [Cimifugin, cimifugin, reference compound] | – | – | – | – | – | appearance / detection in plasma (in vivo; [3]): identified by major peaks; activity against ROS (in words) [1]: no activity; activity against nitric oxide (in words) [2]: no activity |
| COc1c(O)cc(C(=O)O)cc1O [4-O-Methylgallic acid, 4-O-methylgallic acid] | 0.0327 | 0.00665 | 1.62 | 2.00 | not detectable even at the highest concentration | plasma concentration after β-glucuronidase treatment (in vivo; rat plasma, 1 h after oral JHT 2 g/kg): unchanged; concentration at 1 h (in vivo; [5]): 0.00557 µg/mL; Antioxidant activity, IC50, Nitric Oxide ([2]; tested at 0.1-30 μmol/L, N = 3, n.d. = not detectable at the maximal concentration (30 μmol/L)): 3.59 mg/L |
| O=C(O)c1cc(O)c(O)c(O)c1 [Gallic acid] | – | – | – | – | – | plasma concentration (not detected) (in vivo; [3]): < 0.01 µg/mL |
| COc1cc(C(=O)O)cc(O)c1O [3-O-methylgallic acid] | – | – | – | – | – | activity against ROS (in words) [1]: strong activity; activity against nitric oxide (in words) [2]: not nitric oxide |
| O=C1CC(c2ccc(O)cc2)Oc2cc(OC3OC(C(=O)O)C(O)C(O)C3O)ccc21 (stereo not shown) [Liquiritigenin 7-O-glucuronide, liquiritigenin 7-O-glucuronide] | 0.223 | 0.0356 | 2.72 | 2.00 | 0.765 mg/L | anti-ROS activity of glucuronide compared with its aglycone ([1]; Figure 4): completely identical to that of their aglycones |
| O=C1C[C@@H](c2ccc(O[C@@H]3O[C@H](CO)[C@@H](O)[C@H](O)[C@H]3O)cc2)Oc2cc(O)ccc21 [Liquiritin] | – | – | – | – | – | concentration at 1 h (in vivo; rat plasma, 1 h after oral JHT 2 g/kg, read-out: plasma concentration after β-glucuronidase treatment): 0.0391 µg/mL; concentration at 1 h (in vivo; [5]): 0.0024 µg/mL |
| O=C(O)[C@H]1O[C@@H](Oc2c(-c3ccc(O)c(O)c3)oc3cc(O)cc(O)c3c2=O)[C@H](O)[C@@H](O)[C@@H]1O [QCN-3G, quercetin 3-O-glucuronide] | – | – | – | – | – | appearance / detection in plasma (in vivo; [3]): did not appear in the plasma |
| O=C(C=Cc1ccc(O)cc1)c1ccc(O)cc1OC1OC(C(=O)O)C(O)C(O)C1O (stereo not shown) [Isoliquiritigenin 2′-O-glucuronide, isoliquiritigenin 2′-O-glucuronide] | 0.0116 | 0.00319 | – | 0.250 | 0.704 mg/L | – |
| O=C(O)[C@H]1O[C@@H](Oc2cc(O)c3c(=O)cc(-c4ccc(O)c(O)c4)oc3c2)[C@H](O)[C@@H](O)[C@@H]1O [LTN-7G, luteolin 7-O-glucuronide] | – | – | – | – | – | appearance / detection in plasma (in vivo; [3]): did not appear in the plasma |
| COc1ccc(C2CC(=O)c3c(O)cc(OC4OC(C(=O)O)C(O)C(O)C4O)cc3O2)cc1O (stereo not shown) [Hesperetin 7-O-glucuronide, hesperetin 7-O-glucuronide] | 0.19 | 0.0342 | 2.99 | 4.00 | 4.27 mg/L | anti-ROS activity of glucuronide compared with its aglycone ([1]; Figure 4): partially decreased |
